For the data set, the system named is CCRIS mutagenicity, Ames/micronucleus/aberration tests. The data set is described as follows: CCRIS mutagenicity studies.
The mark [1] stands for this setting: Test System: AMES SALMONELLA TYPHIMURIUM, Strain/Indicator: TA97, Metabolic Activation: NONE, Method: STANDARD PLATE.
Where [2] appears, read: Test System: AMES SALMONELLA TYPHIMURIUM, Strain/Indicator: TA97, Metabolic Activation: RAT, LIVER, S-9, AROCLOR 1254, Method: STANDARD PLATE.
The mark [3] stands for this setting: Test System: AMES SALMONELLA TYPHIMURIUM, Strain/Indicator: TA98, Metabolic Activation: NONE, Method: STANDARD PLATE.
The mark [4] stands for this setting: Test System: AMES SALMONELLA TYPHIMURIUM, Strain/Indicator: TA98, Metabolic Activation: RAT, LIVER, S-9, AROCLOR 1254, Method: STANDARD PLATE.
Setting [5] is: Test System: AMES SALMONELLA TYPHIMURIUM, Strain/Indicator: TA100, Metabolic Activation: NONE, Method: STANDARD PLATE.
Where [6] appears, read: Test System: AMES SALMONELLA TYPHIMURIUM, Strain/Indicator: TA100, Metabolic Activation: RAT, LIVER, S-9, AROCLOR 1254, Method: STANDARD PLATE.
[7] abbreviates: Test System: AMES SALMONELLA TYPHIMURIUM, Strain/Indicator: TA97A, Metabolic Activation: NONE, Method: STANDARD PLATE.
[8] abbreviates: Test System: AMES SALMONELLA TYPHIMURIUM, Strain/Indicator: TA102, Metabolic Activation: NONE, Method: STANDARD PLATE.
Where [9] appears, read: Test System: AMES SALMONELLA TYPHIMURIUM, Strain/Indicator: TA102, Metabolic Activation: RAT, LIVER, S-9, AROCLOR 1254, Method: STANDARD PLATE.

Structures are written as SMILES. Activity calls are given as the source filed them. The rule behind the calls is not given here.

For the compound `O=C1NC(=O)C(c2ccccc2)(c2ccc(O)cc2)N1` (centres undefined), the mutagenic call is “inactive; negative” under setting [1]; “inactive; negative” (Test System: AMES SALMONELLA TYPHIMURIUM, Strain/Indicator: TA97, Metabolic Activation: RAT, LIVER, S-9, 3-METHYLCHOLANTHRENE, Method: PREINCUBATION (10, 20 OR 30 MIN)); “inactive; negative” (Test System: AMES SALMONELLA TYPHIMURIUM, Strain/Indicator: TA97, Metabolic Activation: RAT, LIVER, S-9, 3-METHYLCHOLANTHRENE, Method: STANDARD PLATE); “inactive; negative” (Test System: AMES SALMONELLA TYPHIMURIUM, Strain/Indicator: TA97, Metabolic Activation: RAT, LIVER, S-9, AROCLOR 1254, Method: PREINCUBATION (10, 20 OR 30 MIN)); “inactive; negative” under setting [2]; “inactive; negative” (Test System: AMES SALMONELLA TYPHIMURIUM, Strain/Indicator: TA97, Metabolic Activation: RAT, LIVER, S-9, PHENOBARBITONE, Method: PREINCUBATION (10, 20 OR 30 MIN)). Moreover, the mutagenic call is, setting by setting: (Test System: AMES SALMONELLA TYPHIMURIUM, Strain/Indicator: TA97, Metabolic Activation: RAT, LIVER, S-9, PHENOBARBITONE, Method: STANDARD PLATE) “inactive; negative”; under setting [3], “inactive; negative”; (Test System: AMES SALMONELLA TYPHIMURIUM, Strain/Indicator: TA98, Metabolic Activation: RAT, LIVER, S-9, 3-METHYLCHOLANTHRENE, Method: STANDARD PLATE) “inactive; negative”; under setting [4], “inactive; negative”; (Test System: AMES SALMONELLA TYPHIMURIUM, Strain/Indicator: TA98, Metabolic Activation: RAT, LIVER, S-9, PHENOBARBITONE, Method: STANDARD PLATE) “inactive; negative”; under setting [5], “inactive; negative”. Besides, the mutagenic call is “inactive; negative” (Test System: AMES SALMONELLA TYPHIMURIUM, Strain/Indicator: TA100, Metabolic Activation: RAT, LIVER, S-9, 3-METHYLCHOLANTHRENE, Method: STANDARD PLATE); “inactive; negative” under setting [6]; “inactive; negative” (Test System: AMES SALMONELLA TYPHIMURIUM, Strain/Indicator: TA100, Metabolic Activation: RAT, LIVER, S-9, PHENOBARBITONE, Method: STANDARD PLATE); “inactive; negative” (Test System: AMES SALMONELLA TYPHIMURIUM, Strain/Indicator: TA1530, Metabolic Activation: NONE, Method: STANDARD PLATE); “inactive; negative” (Test System: AMES SALMONELLA TYPHIMURIUM, Strain/Indicator: TA1530, Metabolic Activation: RAT, LIVER, S-9, 3-METHYLCHOLANTHRENE, Method: STANDARD PLATE); “inactive; negative” (Test System: AMES SALMONELLA TYPHIMURIUM, Strain/Indicator: TA1530, Metabolic Activation: RAT, LIVER, S-9, AROCLOR 1254, Method: STANDARD PLATE). Further, the mutagenic call is “inactive; negative” (Test System: AMES SALMONELLA TYPHIMURIUM, Strain/Indicator: TA1530, Metabolic Activation: RAT, LIVER, S-9, PHENOBARBITONE, Method: STANDARD PLATE); “inactive; negative” (Test System: AMES SALMONELLA TYPHIMURIUM, Strain/Indicator: TA1537, Metabolic Activation: NONE, Method: STANDARD PLATE); “inactive; negative” (Test System: AMES SALMONELLA TYPHIMURIUM, Strain/Indicator: TA1537, Metabolic Activation: RAT, LIVER, S-9, 3-METHYLCHOLANTHRENE, Method: STANDARD PLATE); “inactive; negative” (Test System: AMES SALMONELLA TYPHIMURIUM, Strain/Indicator: TA1537, Metabolic Activation: RAT, LIVER, S-9, AROCLOR 1254, Method: STANDARD PLATE); “inactive; negative” (Test System: AMES SALMONELLA TYPHIMURIUM, Strain/Indicator: TA1537, Metabolic Activation: RAT, LIVER, S-9, PHENOBARBITONE, Method: STANDARD PLATE); “inactive; negative” (Test System: AMES SALMONELLA TYPHIMURIUM, Strain/Indicator: TA1538, Metabolic Activation: NONE, Method: STANDARD PLATE). Moreover, the mutagenic call (Test System: AMES SALMONELLA TYPHIMURIUM, Strain/Indicator: TA1538, Metabolic Activation: RAT, LIVER, S-9, 3-METHYLCHOLANTHRENE, Method: STANDARD PLATE) was “inactive; negative”; the mutagenic call (Test System: AMES SALMONELLA TYPHIMURIUM, Strain/Indicator: TA1538, Metabolic Activation: RAT, LIVER, S-9, AROCLOR 1254, Method: STANDARD PLATE) was “inactive; negative”; the mutagenic call (Test System: AMES SALMONELLA TYPHIMURIUM, Strain/Indicator: TA1538, Metabolic Activation: RAT, LIVER, S-9, PHENOBARBITONE, Method: STANDARD PLATE) was “inactive; negative”.
Turning to `NC(=O)N(Cc1ccccc1)N=O`, the mutagenic call by setting is: (Test System: AMES SALMONELLA TYPHIMURIUM, Strain/Indicator: TA100, Metabolic Activation: NONE, Method: LIQUID INCUBATION) “active; positive”; (Test System: AMES SALMONELLA TYPHIMURIUM, Strain/Indicator: TA1535, Metabolic Activation: NONE, Method: LIQUID INCUBATION) “inactive; negative”.
In the case of `CC(C)([CH2][Sn]([CH2]C(C)(C)c1ccccc1)([CH2]C(C)(C)c1ccccc1)[O][Sn]([CH2]C(C)(C)c1ccccc1)([CH2]C(C)(C)c1ccccc1)[CH2]C(C)(C)c1ccccc1)c1ccccc1`, the mutagenic call by setting is: (End Point: In vitro chromosomal aberrations, Test System: Human lymphocytes, Metabolic Activation: None) “inactive; negative”; (End Point: In vitro chromosomal aberrations, Test System: Human lymphocytes, Metabolic Activation: Rat, Liver, S-9, Aroclor 1254) “inactive; negative”; (End Point: In vivo micronucleus, Test System: Bone marrow polychromatic erythrocytes, Species: Mouse, Strain/Sex: Crl:CD-1(ICR)BR/Male and female, Route: Oral) “inactive; negative”; (End Point: UDS, Test System: Rat primary hepatocytes, Metabolic Activation: None, Method: Autoradiography) “inactive; negative”; (Test System: Chinese hamster ovary cells, Strain/Indicator: CHO cells (HPRT)/6-Thioguanine, Metabolic Activation: None, Method: Standard plate) “inactive; negative”; (Test System: Chinese hamster ovary cells, Strain/Indicator: CHO cells (HPRT)/6-Thioguanine, Metabolic Activation: Rat, Liver, S-9, Aroclor 1254, Method: Standard plate) “inactive; negative”.
As to `COC1=CC(=O)c2c(ncc3c2[nH]c2ccccc23)C1=O`, the mutagenic call is “active; positive” under setting [7]; “active; positive” (Test System: AMES SALMONELLA TYPHIMURIUM, Strain/Indicator: TA97A, Metabolic Activation: RAT LIVER S-9, AROCLOR 1254, Method: STANDARD PLATE); “active; positive” under setting [3]; “active; positive” (Test System: AMES SALMONELLA TYPHIMURIUM, Strain/Indicator: TA98, Metabolic Activation: RAT LIVER S-9, AROCLOR 1254, Method: STANDARD PLATE); “active; positive” under setting [5]; “active; positive” (Test System: AMES SALMONELLA TYPHIMURIUM, Strain/Indicator: TA100, Metabolic Activation: RAT LIVER S-9, AROCLOR 1254, Method: STANDARD PLATE). Besides, the mutagenic call is “active; positive” under setting [8] and “active; positive” (Test System: AMES SALMONELLA TYPHIMURIUM, Strain/Indicator: TA102, Metabolic Activation: RAT LIVER S-9, AROCLOR 1254, Method: STANDARD PLATE).
As for `CCCCOCC(=O)O`, the mutagenic call is “inactive; negative” under setting [7]; “inactive; negative” (Test System: AMES SALMONELLA TYPHIMURIUM, Strain/Indicator: TA97A, Metabolic Activation: RAT, LIVER, S-9, AROCLOR 1254, Method: STANDARD PLATE); “inactive; negative” under setting [3]; “inactive; negative” under setting [4]; “inactive; negative” under setting [5]; “inactive; negative” under setting [6]. The mutagenic call reads like this: under setting [8], “inactive; negative”; under setting [9], “inactive; negative”.
As for `Cc1nc2c(c3[nH]c4ccccc4c13)C(=O)C=C(N1CC1)C2=O`, the mutagenic call is “active; positive” under setting [1]; “active; positive” under setting [2]; “active; positive” under setting [3]; “active; positive” under setting [4]; “active; positive” under setting [5]; “active; positive” under setting [6]. Further, the mutagenic call by setting is: under setting [8], “inactive; negative”; under setting [9], “active; positive”.

The record behind these values is PubChem BioAssay AID1259407 (Chemical Carcinogenesis Research Information System (CCRIS), 2018).
